Patent publication US6274330A, “L-AP4 sensitive glutamate receptors” (ZymoGenetics, Inc., priority 1993, dated 2001)
Entries after “also recorded” stand apart in the source; their conditions may differ.

Legend:
mGluR7 [1] = molecular target: T1, mGluR7 (Rattus norvegicus, UniProt P35400); assay: Inhibition of forskolin-stimulated cAMP production in BHK cells transfected with mGluR7; type: cell-based; conditions: for antagonism of the inhibition of cAMP produced by L-AP4: antagonist 1 mM; for inhibition of forskolin-stimulated cAMP production: forskolin 10 μM, 10 minutes, IBMX 1 mM; for decrease in cAMP: agonist 100 μM; for agonist potency at mGluR7 compared with that previously observed for mGluR4 or mGluR6: cAMP inhibition, no full concentration-response analysis
T1 construct: RNA-injected Xenopus oocytes
Procedure: FIG. 2 depicts the inhibition of forskolin-stimulated cAMP production by mGluR7 in baby hamster kidney cells. BHK cells transfected with mGluR7 were preincubated for 20 minutes in IBMX (1 mM), then incubated for 10 minutes with forskolin (10 μM) in the presence or absence of agonists or antagonists.
BHK cells were transfected with mGluR7 subcloned into pZEM229R. Plasmid pZEM229R is a pUC18-based expression vector containing an EcoRI cloning site between a mouse metallothionein-I promoter and an SV40 transcription terminator. The vector also contains an expression unit of the SV40 early promoter, mouse dihydrofolate reductase gene, and SV40 terminator. The two expression units are in opposite orientations with their respective promoters adjacent to each other. E. coli HB101 transformed with pZEM229R was deposited with American Type Culture Collection, 12301 Parklawn Drive, Rockville, MD on Sep. 28, 1993.
(§1) The cells were grown in 10% fetal calf serum and Dulbecco's minimal essential media (DMEM), and transfected clones were selected by methotrexate resistance. Resistant clones were assayed for the presence of mGluR7 RNA and protein. Confluent cells were assayed for cAMP production (Amersham) in the presence of IBMX (1 mM) isobutylmethylxanthine; cAMP levels were measured after 10 minute treatment with forskolin (10 μM) in the presence or absence of mGluR agonists or antagonists. Assays were performed in triplicate three times and the average value from these experiments expressed as the mean cAMP levels plus and minus the standard deviation. The basal cAMP production was subtracted from the stimulated levels and the inhibition was plotted as a percent of the forskolin-stimulated control.

mGluR4 = assay: Forskolin-stimulated cAMP assay in a BHK clone expressing mGluR4; type: cell-based; conditions: L-AP4 1 mM
wild-type BHK cells = assay: cAMP levels in wild-type BHK cells; type: cell-based, hamster
Procedure: as §1

mGluR7 [2] = molecular target: T1, mGluR7; assay: Calcium-activated chloride current in Xenopus oocytes injected with mGluR7 mRNA (two-electrode voltage clamp); type: cell-based
Procedure: (§2) For oocyte expression studies, xenopus laevis (Xenopus I, Ann Arbor) were anesthetized with tricaine and oocytes harvested using sterile technique. RNA transcripts from mGluR1 and mGluR7 were injected into Stage V-VI oocytes (1-100 ng RNA/oocyte) and the oocytes were assayed for production of a calcium-activated chloride current using a two-electrode voltage clamp. Harvesting of oocytes, solutions and recording methods were as described by Lester and colleagues (Dascal et al., Brain Res. 387: 201-209 [1986], which is incorporated herein by reference).

mGluR1 = assay: Calcium-activated chloride current in Xenopus oocytes injected with mGluR1 mRNA (two-electrode voltage clamp); type: cell-based; conditions: sister oocytes injected with mGluR1 mRNA
Procedure: as §2

[3] = agonist 1 mM, BHK cells expressing mGluR7

T1 sequence (P35400 35-915): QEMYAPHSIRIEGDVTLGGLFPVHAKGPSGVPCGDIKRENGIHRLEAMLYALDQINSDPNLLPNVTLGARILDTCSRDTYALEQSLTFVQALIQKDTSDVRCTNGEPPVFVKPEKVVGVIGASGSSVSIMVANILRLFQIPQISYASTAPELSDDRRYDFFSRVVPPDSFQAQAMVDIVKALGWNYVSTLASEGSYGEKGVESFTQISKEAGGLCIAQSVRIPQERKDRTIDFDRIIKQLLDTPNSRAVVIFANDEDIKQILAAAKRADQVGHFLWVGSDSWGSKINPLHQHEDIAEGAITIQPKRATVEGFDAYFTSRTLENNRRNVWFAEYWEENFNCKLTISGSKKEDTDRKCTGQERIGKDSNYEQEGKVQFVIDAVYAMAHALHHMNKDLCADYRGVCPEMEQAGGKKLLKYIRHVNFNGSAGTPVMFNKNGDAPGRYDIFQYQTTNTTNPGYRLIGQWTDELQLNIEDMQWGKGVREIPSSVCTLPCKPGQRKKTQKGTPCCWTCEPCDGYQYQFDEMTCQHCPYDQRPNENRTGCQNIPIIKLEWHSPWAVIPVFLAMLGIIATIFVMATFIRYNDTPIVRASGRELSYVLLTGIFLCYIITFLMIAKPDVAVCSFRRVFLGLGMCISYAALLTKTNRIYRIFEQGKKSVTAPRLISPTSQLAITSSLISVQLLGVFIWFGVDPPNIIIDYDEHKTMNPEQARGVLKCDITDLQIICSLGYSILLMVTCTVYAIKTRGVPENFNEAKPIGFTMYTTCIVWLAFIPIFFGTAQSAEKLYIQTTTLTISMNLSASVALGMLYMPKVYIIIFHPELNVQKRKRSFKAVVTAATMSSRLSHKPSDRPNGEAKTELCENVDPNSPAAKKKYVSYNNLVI

## CC(N)(C(=O)O)c1ccc(C(=O)O)cc1 (racemic) [MCPG, RS-α-methyl-4-carboxyphenylglycine]
mGluR7 [1]; BHK cells expressing mGluR7
  antagonism of the inhibition of cAMP produced by L-AP4: did not antagonize

## N[C@@]1(C(=O)O)CC[C@@H](C(=O)O)C1 [ACPD, (1S,3R)-1-aminocyclopentane-1,3-dicarboxylic acid]
mGluR7 [1]; [3]
  inhibition of forskolin-stimulated cAMP production: less efficient; also recorded: much less effective

## N[C@@H](CP(=O)(O)O)C(=O)O [L-AP3, 2-amino-3-phosphonopropionic acid]
mGluR7 [1]; BHK cells expressing mGluR7
  antagonism of the inhibition of cAMP produced by L-AP4: did not antagonize
mGluR7 [1]; antagonist 3 mM, BHK cells expressing mGluR7
  antagonism of mGluR7-mediated cAMP inhibition: did not antagonize

## N[C@@H](CCP(=O)(O)O)C(=O)O [L-AP4, L-2-amino-4-phosphonobutryic acid]
mGluR7 [1]; BHK cells expressing mGluR7
  decrease in cAMP: small decreases in cAMP which were not statistically significant
mGluR7 [1]; [3]
  inhibition of forskolin-stimulated cAMP production: largest inhibition; also recorded: inhibited
mGluR7 [1]
  agonist potency at mGluR7 compared with that previously observed for mGluR4 or mGluR6: much less potent agonists
mGluR4
  inhibition (cAMP) in BHK clone expressing mGluR4: 45%
wild-type BHK cells
  effect on basal cAMP levels: no significant effect
  effect on forskolin-stimulated cAMP levels: no significant effect

## N[C@@H](CCC(=O)O)C(=O)O [glutamate]
mGluR7 [1]; BHK cells expressing mGluR7
  decrease in cAMP: small decreases in cAMP which were not statistically significant
mGluR7 [1]; [3]
  inhibition of forskolin-stimulated cAMP production: less efficient; also recorded: inhibited
mGluR7 [1]
  agonist potency at mGluR7 compared with that previously observed for mGluR4 or mGluR6: much less potent agonists
mGluR7 [2]
  glutamate response (calcium-activated chloride current): no glutamate responses
mGluR1
  glutamate response (calcium-activated chloride current): large calcium-activated chloride currents

## N[C@@H](Cn1oc(=O)[nH]c1=O)C(=O)O [quisqualate]
mGluR7 [1]; agonist 0.5 mM, BHK cells expressing mGluR7
  inhibition of forskolin-stimulated cAMP production: less efficient; also recorded: much less effective
